Patent US7635493B2, “Herbal composition for Tinea infection” (Piramal Life Sciences Limited, priority 2005, dated 2009)
In brackets after ≈: the same amount, converted by molar mass.

Columns and labels:
TNF-α = TNF-α production by LPS in human peripheral blood mononuclear cells (hPBMC), ELISA; assay type: cell-based
Experimental: Assay for Screening in Human Peripheral Blood Mononuclear Cells (hPBMCs). TNF-α production by Lipopolysaccharide (LPS) in hPBMC was measured according to the method described by Jansky, L. et al (Physiol. Res. 52, 593-598, (2003)). Blood was collected from healthy donors into vacutainer tubes coated with potassium EDTA (Vacutest Plast) and diluted 1:2 with Dulbecco's Phosphate Buffered Saline (DPBS) (Sigma Aldrich, St. Louis, Mo.). The PBMC were harvested from human blood and suspended in RPMI 1640 culture medium (Gibco BRL, Pasley, UK) containing 10% fetal bovine serum (FBS) (Hyclone, Utah, USA), 100 U/ml penicillin (Sigma Chemical Co. St Louis, Mo.) and 100 μg/ml streptomycin (Sigma Chemical Co. St Louis, Mo.). The cell concentration was adjusted to 1×10^6 cells/ml. The cell suspension (100 μl) was added to the wells of a 96-well culture plate. Following cell plating, 79 μl of the culture medium and 1 μl of eight different concentrations of the test samples (10 to 100 μg/ml) dissolved in dimethylsulfoxide (DMSO, Sigma, Mo., USA) were added to the cells. The final concentration of DMSO was adjusted to 0.5-1%. Rolipram (100 μM) was used as a standard compound. The plates were incubated for 30 min at 37° C. in an atmosphere of 5% CO2. Finally, 20 μl (10 μg/ml) per well of LPS, (Escherchia coli 0127:B8, Sigma Chemical Co., St. Louis, Mo.) was added, to obtain a final concentration of 2 μg/ml. The plates were incubated at 37° C. for 5 h in an atmosphere of 5% CO2. Supernatants were harvested and assayed for % TNF-α inhibition by ELISA as described by the manufacturer (R&D Systems, MN) or by cytotoxicity bioassay in L929 cells.

L929 cells = assay: Cytotoxicity in L929 cell lines; assay type: cell-based; design: Cytotoxicity in L929 cell lines: unit not given here
Microsporum gypseum = assay: In vitro anti-dermatophytic activity, agar dilution MIC; assay type: cell-based; settings: Nannizzia gypsea; M. gypseum; Sabarouds agar, 28° C./48 h
Experimental: (§1) In vitro Assay Procedure.
(§2) Organisms: Trichophyton mentagrophytes & Microsporum gypseum.
(§3) Cultures were grown on PDA agar slants at 28° C. for 7 days. The growth was covered with sterile saline & scraped to get a growth suspension. The resulting mixture of conidia or sporangiospores & hypal fragments was transferred to a sterile test tube. The heavy particles were allowed to settle & upper homogenous suspension was transferred to another tube. These suspensions were adjusted to an optical density that ranged from 0.09 to 0.11 (80 to 82% transmittance) using a spectrophotometer. These stock suspensions were further diluted 1:10 with saline to obtain test inoculum (1×103 to 5×10^3 cfu/ml).
(§4) Ointment & Cream: A 100 mg/ml stock solution of ointment & cream of example 4 and 5 was prepared in demineralised water+0.01% Tween 20. Calculated amount of stock solution was added to 20 ml of Sabarouds melted agar medium & poured into petri plates so as to get a series of serial two fold dilution of the extract in the medium. Five concentrations of 100, 50, 25, 10 & 5 mg/ml were used for both formulations in initial study. A repeated study was carried out using lower concentrations of both the formulations. The concentrations used were 5, 1, 0.9, 0.8, 0.7, 0.6, 0.5, 0.4 0.3, 0.2 & 0.1 mg/ml.
(§5) Extract of Example 1 and Ethyl p-methoxycinnamate: […]

[1] = system: Trichophyton mentagrophytes; assay: as above; assay type: cell-based; settings: T. mentagrophytes, Sabarouds agar, 28° C./48 h
Experimental: as §1, §2, §3, §4, §5

dermatophytes = settings: Lloydia, 39(4), 218-222, (1976); cited from earlier work

Structure (SMILES): CCOC(=O)C=Cc1ccc(OC)cc1 [Ethyl p-methoxycinnamate]
- inhibition at 10 µg/mL (TNF-α; PBMC, sample concentration 10 μg/ml, LPS-stimulated human cells, 5 h): 0%
- inhibition at 100 µg/mL (TNF-α; PBMC, sample concentration 100 μg/ml, LPS-stimulated human cells, 5 h): 80%
- TNF alpha activity inhibition (conclusion in words) (TNF-α; conclusion from table 1): inhibit TNF alpha activity
- Cytotoxicity in L929 cell lines (L929 cells; 10 μg/ml, 3.5 h): 20
- Cytotoxicity in L929 cell lines (L929 cells; 10 μg/ml, 24 h): 27
- Cytotoxicity in L929 cell lines (L929 cells; 100 μg/ml, 3.5 h): 12
- Cytotoxicity in L929 cell lines (L929 cells; 100 μg/ml, 24 h): 02
- Cytotoxicity (conclusion in words) (L929 cells; as measured in L929 cell lines): low cytotoxicity
- MIC (Microsporum gypseum): 30 µg/mL (≈ 145 µM)
- MIC [1]: 30 µg/mL (≈ 145 µM)
- Anti-dermatophytic activity (reported) (dermatophytes): reported to be anti-dermatophytic
